According to US20060052415A1, “N-{2-chloro-4-[(6,7-dimethoxy-4-quinolyl)oxy]phenyl}-n'-(5-methyl-3-isoxazolyl)urea salt in crystalline form” (KIRIN BEER KABUSHIKI KAISHA, priority 2002, published 2006):
“Also recorded” adds a separate entry of the source.

Assays:
Assay type in all cases: physicochemical
[1] = Stability of crystal against physical stress (grinding in a mortar); conditions: ground in an agate or porcelain mortar
Description: (§1) X-ray diffraction patterns of crystals were taken using Cu-Kα radiation (40 kV, 40 mA, λ=1.541 angstroms) with a powder X-ray diffraction apparatus (X-ray diffraction RINT DMAX-2000, manufactured by Rigaku Industrial Corporation) (scanning speed: 5 degrees/min, scanning range: 5.000 to 40.000 degrees, filter: Kβ filter). Based on powder X-ray diffraction patterns thus obtained, peak positions and relative intensity (%) were determined for peaks with a relative intensity of not less than 20%.
Stability of Crystal Against Physical Stress
Each of form I to III crystals of hydrochloride, form I crystal of nitrate, form I and II crystals of sulfate, form I crystal of methanesulfonate, form I and II crystals of p-toluenesulfonate, and form I and II crystals of maleate of N-{2-chloro-4-[(6,7-dimethoxy-4-quinolyl)oxy]phenyl}-N′-(5-methyl-3-isoxazolyl)urea was ground in a mortar. In grinding each crystal in the mortar, about 1 mg of each crystal sample was placed and ground in an agate mortar or a porcelain mortar. For each sample before and after grinding, a powder X-ray diffraction chart was measured by method 1 to evaluate the stability of the crystal against physical stress.

[2] = Stability of crystal under high humidity (40° C., 75% RH) conditions; conditions: stored at 40° C. and 75% RH for 2 weeks
Description: as §1
Stability of Crystal Under High Humidity (40° C., 75% RH) Conditions
(§2) Form I to III crystals of hydrochloride, form I crystal of nitrate, form I and II crystals of sulfate, form I crystal of methanesulfonate, form I and II crystals of p-toluenesulfonate, and form I and II crystals of maleate of N-{2-chloro-4-[(6,7-dimethoxy-4-quinolyl)oxy]phenyl}-N′-(5-methyl-3-isoxazolyl)urea were stored under conditions of 40° C. and 75% RH for 2 weeks. […]

[3] = Stability of crystal under heating (73° C.) conditions; conditions: stored at 73° C. for 2 weeks
Description: as §1
Stability of Crystal Under Heating (73° C.) Conditions
as §2, with “at 73°” for “under conditions of 40°”, “C.” for “C. and 75% RH”

[4] = Hygroscopicity of crystal (weight change on storage); conditions: 40° C. and 75% RH; for hygroscopicity (level, in words): 2 weeks, based on weight change
Description: Hygroscopicity of Crystal
Form I to III crystals of hydrochloride, form I crystal of nitrate, form I and II crystals of sulfate, form I crystal of methanesulfonate, form I and II crystals of p-toluenesulfonate, and form I and II crystals of maleate of N-{2-chloro-4-[(6,7-dimethoxy-4-quinolyl)oxy]phenyl}-N′-(5-methyl-3-isoxazolyl)urea were stored under conditions of 40° C. and 75% RH for 2 weeks. Before and after the storage, the weight of each crystal was measured to determine a difference in weight between before the storage and after the storage.
For each crystal, the hygroscopicity was evaluated based on the weight change.

[5] = listed as form II crystal of hydrochloride, hydrochloride

Structure (SMILES)	stability of crystal under high humidity conditions (change of powder X-ray diffraction chart) [2]	stability of crystal under high temperature conditions (change of powder X-ray diffraction chart) [3]	stability of crystal against physical stress (powder X-ray diffraction before and after grinding) [1]	hygroscopicity (level, in words) [4]	weight change (hygroscopicity) After 1 week [4] [%]	weight change (hygroscopicity) After 2 weeks [4] [%]	weight change (hygroscopicity) After 2 days [4] [%]	further results
COc1cc2nccc(Oc3ccc(NC(=O)Nc4cc(C)on4)c(Cl)c3)c2cc1OC.O=C(O)/C=C\C(=O)O [Form I crystal of maleate, N-{2-chloro-4-[(6,7-dimethoxy-4-quinolyl)oxy]phenyl}-N′-(5-methyl-3-isoxazolyl)urea maleate]	excellent stability	excellent stability						stability of crystal against physical stress (powder X-ray diffraction before and after grinding) ([1]; maleate): lowering in peak intensity; hygroscopicity (level, in words) ([4]; maleate): low level of hygroscopicity; also recorded: on a low level; weight change (hygroscopicity) After 1 week ([4]; maleate): 0.41%; weight change (hygroscopicity) After 2 weeks ([4]; maleate): 0.53%; weight change (hygroscopicity) After 2 days ([4]; maleate): 0.46%
COc1cc2nccc(Oc3ccc(NC(=O)Nc4cc(C)on4)c(Cl)c3)c2cc1OC.CS(=O)(=O)O [Form I crystal of methanesulfonate, N-{2-chloro-4-[(6,7-dimethoxy-4-quinolyl)oxy]phenyl}-N′-(5-methyl-3-isoxazolyl)urea methanesulfonate]	excellent stability	excellent stability	excellent stability	highly hygroscopic	2.70	2.84	2.58	
COc1cc2nccc(Oc3ccc(NC(=O)Nc4cc(C)on4)c(Cl)c3)c2cc1OC.O=[N+]([O-])O [Form I crystal of nitrate, N-{2-chloro-4-[(6,7-dimethoxy-4-quinolyl)oxy]phenyl}-N′-(5-methyl-3-isoxazolyl)urea nitrate]	excellent stability	excellent stability	excellent stability	highly hygroscopic	2.22	2.22	2.04	
COc1cc2nccc(Oc3ccc(NC(=O)Nc4cc(C)on4)c(Cl)c3)c2cc1OC.Cc1ccc(S(=O)(=O)O)cc1 [Form I crystal of p-toluenesulfonate, N-{2-chloro-4-[(6,7-dimethoxy-4-quinolyl)oxy]phenyl}-N′-(5-methyl-3-isoxazolyl)urea p-toluenesulfonate]	excellent stability	excellent stability	excellent stability					hygroscopicity (level, in words) ([4]; p-toluenesulfonate): low level of hygroscopicity; also recorded: on a low level; weight change (hygroscopicity) After 1 week ([4]; p-toluenesulfonate): 0.24%; weight change (hygroscopicity) After 2 weeks ([4]; p-toluenesulfonate): 0.25%; weight change (hygroscopicity) After 2 days ([4]; p-toluenesulfonate): 0.29%
COc1cc2nccc(Oc3ccc(NC(=O)Nc4cc(C)on4)c(Cl)c3)c2cc1OC.O=S(=O)(O)O [Form I crystal of sulfate, N-{2-chloro-4-[(6,7-dimethoxy-4-quinolyl)oxy]phenyl}-N′-(5-methyl-3-isoxazolyl)urea sulfate]			lowering in peak intensity	highly hygroscopic	4.21	4.25	4.20	stability of crystal under high humidity conditions (change of powder X-ray diffraction chart) ([2]; sulfate): converted to a mixture of form I crystal and a novel crystalline form; stability of crystal under high temperature conditions (change of powder X-ray diffraction chart) ([3]; listed as form I crystal of sulfate, sulfate): excellent stability
COc1cc2nccc(Oc3ccc(NC(=O)Nc4cc(C)on4)c(Cl)c3)c2cc1OC.Cl [Form II crystal of hydrochloride, N-{2-chloro-4-[(6,7-dimethoxy-4-quinolyl)oxy]phenyl}-N′-(5-methyl-3-isoxazolyl)urea hydrochloride]								stability of crystal against physical stress (powder X-ray diffraction before and after grinding) [1, 5]: excellent stability; stability of crystal under high humidity conditions (change of powder X-ray diffraction chart) [2, 5]: excellent stability; stability of crystal under high temperature conditions (change of powder X-ray diffraction chart) [3, 5]: excellent stability; hygroscopicity (level, in words) ([4]; hydrochloride): low level of hygroscopicity; also recorded: on a low level; weight change (hygroscopicity) After 1 week ([4]; hydrochloride): 0.29%; weight change (hygroscopicity) After 2 weeks ([4]; hydrochloride): 0.20%; weight change (hygroscopicity) After 2 days ([4]; hydrochloride): 0.30%
COc1cc2nccc(Oc3ccc(NC(=O)Nc4cc(C)on4)c(Cl)c3)c2cc1OC.O=C(O)/C=C\C(=O)O [Form II crystal of maleate, N-{2-chloro-4-[(6,7-dimethoxy-4-quinolyl)oxy]phenyl}-N′-(5-methyl-3-isoxazolyl)urea maleate]	excellent stability	excellent stability						stability of crystal against physical stress (powder X-ray diffraction before and after grinding) ([1]; maleate): excellent stability; hygroscopicity (level, in words) ([4]; maleate): low level of hygroscopicity; also recorded: on a low level; weight change (hygroscopicity) After 1 week ([4]; maleate): 0.42%; weight change (hygroscopicity) After 2 weeks ([4]; maleate): 0.57%; weight change (hygroscopicity) After 2 days ([4]; maleate): 0.60%
COc1cc2nccc(Oc3ccc(NC(=O)Nc4cc(C)on4)c(Cl)c3)c2cc1OC.Cc1ccc(S(=O)(=O)O)cc1 [Form II crystal of p-toluenesulfonate, N-{2-chloro-4-[(6,7-dimethoxy-4-quinolyl)oxy]phenyl}-N′-(5-methyl-3-isoxazolyl)urea p-toluenesulfonate]	excellent stability	excellent stability	excellent stability					hygroscopicity (level, in words) ([4]; p-toluenesulfonate): low level of hygroscopicity; also recorded: on a low level; weight change (hygroscopicity) After 1 week ([4]; p-toluenesulfonate): 0.70%; weight change (hygroscopicity) After 2 weeks ([4]; p-toluenesulfonate): 0.80%; weight change (hygroscopicity) After 2 days ([4]; p-toluenesulfonate): 0.84%
COc1cc2nccc(Oc3ccc(NC(=O)Nc4cc(C)on4)c(Cl)c3)c2cc1OC.O=S(=O)(O)O [Form II crystal of sulfate, N-{2-chloro-4-[(6,7-dimethoxy-4-quinolyl)oxy]phenyl}-N′-(5-methyl-3-isoxazolyl)urea sulfate]								stability of crystal under high humidity conditions (change of powder X-ray diffraction chart) ([2]; listed as from II crystal of sulfate, sulfate): converted to a novel crystalline form; stability of crystal under high temperature conditions (change of powder X-ray diffraction chart) ([3]; listed as form II crystal of sulfate, sulfate): converted to a novel crystalline form
